Measurements as given in patent US8173392B2, “In vivo incorporation of unnatural amino acids” (The Scripps Research Institute, priority 2001, dated 2012).

Assays:
[1] = tested on: glutamine uptake pathway of DH10B; test: complementation of toxic glutamine alleles S27 and S47 (cellular uptake); type: cell-based, E. coli; settings: 2 mM, complementation of S27 (100 μM) and S47 (30 μM)
Source text: To identify possible uptake pathways for toxic amino acids, toxicity assays are optionally repeated at IC50 levels, e.g., in media supplemented with an excess of a structurally similar natural amino acid. For toxic amino acids, the presence of excess natural amino acid typically rescues the ability of the cells to grow in the presence of the toxin, presumably because the natural amino acid effectively outcompetes the toxin for either cellular uptake or for binding to essential enzymes. In these cases, the toxic amino acid is optionally assigned a possible uptake pathway and labeled a “lethal allele” whose complementation is required for cell survival. These lethal alleles are extremely useful for assaying the ability of cells to uptake nontoxic unnatural amino acids. […] A lack of complementation is inconclusive. For example studies and conclusions see the examples provided below.
For toxic amino acids, the presence of excess natural amino acid rescued the ability of the cells to grow in the presence of the toxin, presumably because the natural amino acid effectively outcompeted the toxin for either cellular uptake or for binding to essential enzymes. […]
Using this method, the ability of 22 glutamine and glutamic acid analogs to be taken up by DH10B was evaluated. […]

[2] = tested on: DH10B harboring pBLAM-YQRS and pACYsupA38; test: cell toxicity screen of unnatural amino acids in glycerol minimal media; type: cell-based, E. coli; settings: concentration used as lethal allele at IC50 level
Source text: For example, a variety of unnatural amino acids are optionally screened in minimal media for toxicity to cells. Toxicities are typically sorted into five groups: (1) no toxicity, in which no significant change in doubling times occurs; (2) low toxicity, in which doubling times increase by less than about 10%; (3) moderate toxicity, in which doubling times increase by about 10% to about 50%; (4) high toxicity, in which doubling times increase by about 50% to about 100%; and (5) extreme toxicity, in which doubling times increase by more than about 100%. […] The toxicity of the amino acids scoring as highly or extremely toxic is typically measured as a function of their concentration to obtain IC50 values.
A variety of unnatural amino acids and α-hydroxy acids of interest, obtained commercially or by short syntheses from available starting materials (I. Shin, B. Herberich, A. Varvak, T. Magliery, P. Schultz, unpublished results, were screened for cell toxicity). […] Each amino acid wasscreened at 1 mM in glycerol minimal media for toxicity to cells, e.g., to DH10B harboring pBLAM-YQRS and pACYsupA38.
The toxicity of amino acids scoring as highly or extremely toxic is typically measured as a function of their concentration to obtain IC50 values. […]

For NNC(=O)CCC(N)C(=O)O (centres unmarked) [S47], the “cellular uptake, possibly via the glutamine uptake pathway” value [1] was “uptaken by cells” and the IC50 [2] was 30 µM.
